In ChEMBL document CHEMBL3399943, “In vitro and in silico evaluation of twelve newly-synthesized 1-acetamide-5-methoxy-2-oxindoles as 5-Ht₇ receptor ligands” (Bioorg Med Chem Lett, 2015):

Target: 5-hydroxytryptamine receptor 7 (Homo sapiens) (UniProt P34969)
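Note: displacement of bound [3H]-SB269970 at the 5-HT7 receptor (origin unspecified), test concentration 10 µM, 60 min incubation.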

Sequence of 5-hydroxytryptamine receptor 7 (Homo sapiens) (P34969 whole entry): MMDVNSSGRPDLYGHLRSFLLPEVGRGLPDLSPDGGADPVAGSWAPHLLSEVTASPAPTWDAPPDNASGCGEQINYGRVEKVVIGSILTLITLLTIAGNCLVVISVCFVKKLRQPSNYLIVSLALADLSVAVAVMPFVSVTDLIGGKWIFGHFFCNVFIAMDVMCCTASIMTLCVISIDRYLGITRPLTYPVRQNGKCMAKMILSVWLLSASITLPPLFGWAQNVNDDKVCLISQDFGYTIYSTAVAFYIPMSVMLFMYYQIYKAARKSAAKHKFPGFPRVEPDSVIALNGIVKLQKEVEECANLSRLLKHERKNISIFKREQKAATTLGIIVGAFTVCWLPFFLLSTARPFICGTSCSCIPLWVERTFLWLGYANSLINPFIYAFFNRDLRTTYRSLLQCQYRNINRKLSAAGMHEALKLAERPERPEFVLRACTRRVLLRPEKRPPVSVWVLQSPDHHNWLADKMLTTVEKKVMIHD
Description: Displacement of [3H]-SB269970 from 5-HT7 receptor (unknown origin) at 10 uM after 60 mins

log(activity)	SMILES
0.954	COc1ccc2c(c1)CC(=O)N2C(C(=O)Nc1c(C)cccc1C)C(C)(C)C (configuration not stated)
1.25	COc1ccc2c(c1)CC(=O)N2C(C(=O)Nc1c(C)cccc1C)c1ccc(Cl)cc1 (configuration not stated)
1.18	COc1ccc2c(c1)CC(=O)N2C(C(=O)NC(C)(C)C)c1ccccc1 (configuration not stated)
1.04	COc1ccc2c(c1)CC(=O)N2C(C(=O)NC1CCCCC1)C(C)(C)C (configuration not stated)
1	COc1ccc2c(c1)CC(=O)N2C(C(=O)NC1CCCCC1)c1ccccc1 (configuration not stated)
1.15	COc1ccc2c(c1)CC(=O)N2C(C(=O)NC(C)(C)C)C(C)(C)C (configuration not stated)
1.2	COc1ccc2c(c1)CC(=O)N2C(C(=O)NC1CCCCC1)C(C)C (configuration not stated)
1.38	COc1ccc2c(c1)CC(=O)N2C(C(=O)Nc1c(C)cccc1C)C(C)C (configuration not stated)
1.2	COc1ccc2c(c1)CC(=O)N2C(C(=O)Nc1c(C)cccc1C)c1ccccc1 (configuration not stated)
1.2	COc1ccc2c(c1)CC(=O)N2C(C(=O)NC(C)(C)C)c1ccc(Cl)cc1 (configuration not stated)
1.3	COc1ccc2c(c1)CC(=O)N2C(C(=O)NC1CCCCC1)c1ccc(Cl)cc1 (configuration not stated)
1.48	COc1ccc2c(c1)CC(=O)N2C(C(=O)NC(C)(C)C)C(C)C (configuration not stated)
